Test results reported in the NIST ThermoML archive (doi:10.1016/j.jct.2010.06.011).

Assays:
[1] = xn = mol fraction of the nth substance listed; settings: Liquid, Vibrating tube method, x2 = 0
[2] = Liquid, Vibrating tube method

CCCCCC [hexane] + COC(=O)OC
mass density [kg/m3], [1]
Settings | 100 kPa | 5000 kPa | 10000 kPa | 20000 kPa | 30000 kPa | 40000 kPa
293.15 K | 659.4 | 664.8 | 669.7 | 678.7 | 686.9 | 694.3
298.15 K | 654.9 | 660.4 | 665.5 | 674.8 | 683.2 | 690.7
303.15 K | 650.2 | 655.8 | 661.2 | 670.8 | 679.3 | 687
308.15 K | 645.7 | 651.5 | 657 | 666.9 | 675.8 | 683.6
313.15 K | 640.9 | 647 | 652.8 | 663.1 | 672.1 | 680.2

COC(=O)OC [dimethyl carbonate]
mass density [kg/m3], [2]
Settings | 100 kPa | 5000 kPa | 10000 kPa | 20000 kPa | 30000 kPa | 40000 kPa
293.15 K | 1069.8 | 1074.4 | 1078.6 | 1086.9 | 1094.5 | 1101.9
298.15 K | 1063.2 | 1068 | 1072.4 | 1080.8 | 1088.7 | 1096.2
303.15 K | 1056.5 | 1061.3 | 1066 | 1074.7 | 1082.9 | 1090.4
308.15 K | 1049.8 | 1054.6 | 1059.4 | 1068.5 | 1077 | 1084.8
313.15 K | 1043 | 1048.1 | 1053 | 1062.3 | 1071 | 1079

CCCCCC [hexane]
mass density [kg/m3], [2]
Settings | 100 kPa | 5000 kPa | 10000 kPa | 20000 kPa | 30000 kPa | 40000 kPa
293.15 K | 659.4 | 664.8 | 669.7 | 678.7 | 686.9 | 694.3
298.15 K | 654.9 | 660.4 | 665.5 | 674.8 | 683.2 | 690.7
303.15 K | 650.2 | 655.8 | 661.2 | 670.8 | 679.3 | 687
308.15 K | 645.7 | 651.5 | 657 | 666.9 | 675.8 | 683.6
313.15 K | 640.9 | 647 | 652.8 | 663.1 | 672.1 | 680.2
